Molecules are shown by their SMILES. A value given as a limit tells only on which side of the number the result lay.

The record followed here is US10947215B2, “Heteroaryl compounds and their use as therapeutic drugs” (Dong-A Socio Holdings Co., Ltd., priority 2015, dated 2021).

The test concerns Ba/F3-CDM cells (Ba/F3 transfected with CD8-MerTK). The test can be described thus: In cell MER kinase assay, Ba/F3-CDM cell proliferation without IL-3 (Celltiter-Glo, GI50). To be noted: 48 hours, read-out: Cell growth inhibition (GI50). It is filed as cell-based, murine. The protocol:
In Cell MER Kinase Assay Using BaF3 Cellular System
To establish an in cell kinase assay for MerTK kinase, the IL-3 dependent Ba/F3 cells of murine lymphoid origin was transfected with CD8-MerTK. […] For a routine cellular assay, Ba/F3-CDM cells were seeded at 2,000 cells per well in 384-well cell culture plate containing DMEM/10% FBS culture media and incubated for 24 hours before addition of compounds pre-diluted in culture media. Following compound treatment, cells were further incubated for 48 hours and the proliferation was measured. To discriminate a Ba/F3 growth inhibition by a specific inhibition of MerTK kinase following compound treatment vs growth inhibition due to a non-specific unintended cytotoxicity of compounds, we routinely carried out control sets of Ba/F3 cells in parallel that grown in IL3-supplemented growth media. In the presence of IL-3, the proliferation of Ba/F3 is no longer dependent on the MerTK activity. Cell growth and proliferation was measured with Celltiter-Glo™ system (Promega, USA) according to the manufacturer's instruction. The half-maximal growth inhibitory concentration (GI50) value was calculated with Prism6.0 software (GraphPad, USA).
A general note: Cellular ATP, detected with luciferase, serves as a proxy for viable cell number.
Broadly, the GI50 is the concentration at which growth is held to half of that of the control. In the case of `Cn1cc(-c2cnc(N)c(C(=O)N[C@H]3CCC[C@@H]3OCc3ccc(-c4ccc(CN5CCN(CCO)CC5)c(C(F)(F)F)c4)cc3)c2)cn1` [Example 205, 2-amino-N-((1S,2S)-2-((4′-((4-(2-hydroxyethyl)piperazin-1-yl)methyl)-3′-(trifluoromethyl)-[1,1′-biphenyl]-4-yl)methoxy)cyclopentyl)-5-(1-methyl-1H-pyrazol-4-yl)nicotinamide], the GI50 is under 100 nM.

Turning to `CC(c1ccc(-c2ccc(CO[C@H]3CCC[C@@H]3NC(=O)c3cc(-c4cnn(C)c4)cnc3N)cc2)cc1)N1CCN(C)CC1` (stereo partly drawn) [Example 208, 2-amino-5-(1-methyl-1H-pyrazol-4-yl)-N-((1S,2S)-2-((4′-(1-(4-methylpiperazin-1-yl)ethyl)-[1,1′-biphenyl]-4-yl)methoxy)cyclopentyl)nicotinamide], the GI50 is under 100 nM.

As to `CC(c1ccc(-c2ccc(CO[C@H]3CCC[C@@H]3NC(=O)c3cc(-c4cnn(C)c4)cnc3N)cc2)cc1)N1C[C@@H](C)N(C)[C@@H](C)C1` (stereo partly drawn) [Example 209, 2-amino-5-(1-methyl-1H-pyrazol-4-yl)-N-((1S,2S)-2-((4′-(1-((3S,5R)-3,4,5-trimethylpiperazin-1-yl)ethyl)-[1,1′-biphenyl]-4-yl)methoxy)-cyclopentyl)nicotinamide], the GI50 was under 100 nM.

On to `CC(c1ccc(-c2ccc(CO[C@H]3CCC[C@@H]3NC(=O)c3cc(-c4cnn(C)c4)cnc3N)cc2)cc1)N1C[C@@H](C)N(CCO)[C@@H](C)C1` (stereo partly drawn) [Example 211, 2-amino-N-((1S,2S)-2-((4′-(1-((3S,5R)-4-(2-hydroxyethyl)-3,5-dimethylpiperazin-1-yl)ethyl)-[1,1′-biphenyl]-4-yl)methoxy)cyclopentyl)-5-(1-methyl-1H-pyrazol-4-yl)nicotinamide], for which the GI50 is under 100 nM.

With `CC(c1c(F)cc(-c2ccc(CO[C@H]3CCC[C@@H]3NC(=O)c3cc(-c4cnn(C)c4)cnc3N)cc2)cc1F)N1CCN(CCO)CC1` (stereo partly drawn) [Example 212, 2-amino-N-((1S,2S)-2-((3′,5′-difluoro-4′-(1-(4-(2-hydroxyethyl)-piperazin-1-yl)ethyl)-[1,1′-biphenyl]-4-yl)methoxy)cyclopentyl)-5-(1-methyl-1H-pyrazol-4-yl)nicotinamide], the GI50 was over 1000 nM.

Consider `C[C@H](c1ccc(-c2ccc(CO[C@H]3CCC[C@@H]3NC(=O)c3cc(-c4cnn(C)c4)cnc3N)cc2)cc1)N1CCN(C)CC1` [Example 214, 2-amino-5-(1-methyl-1H-pyrazol-4-yl)-N-((1S,2S)-2-((4′-((R)-1-(4-methylpiperazin-1-yl)ethyl)-[1,1′-biphenyl]-4-yl)methoxy)cyclopentyl)nicotinamide], for which the GI50 is under 100 nM.

As for `C[C@@H](c1ccc(-c2ccc(CO[C@H]3CCC[C@@H]3NC(=O)c3cc(-c4cnn(C)c4)cnc3N)cc2)cc1)N1CCN(C)CC1` [Example 215], the GI50 was under 100 nM.

Take `Cn1cc(-c2cnc(N)c(C(=O)N[C@H]3CCC[C@@H]3OCc3ccc(-c4ccc(C5(N6CCN(CCO)CC6)CC5)cc4)cc3)c2)cn1` [Example 220, 2-amino-N-((1S,2S)-2-((4′-(1-(4-(2-hydroxyethyl)piperazin-1-yl)cyclopropyl)-[1,1′-biphenyl]-4-yl)methoxy)cyclopentyl)-5-(1-methyl-1H-pyrazol-4-yl)nicotinamide]: the GI50 is under 100 nM.

On to `C[C@@H](c1ccc(-c2ccc(CO[C@H]3CCC[C@@H]3NC(=O)c3cc(-c4ccc(F)nc4)cnc3N)cc2)cc1)N1CCN(C)CC1` [Example 222, 6-amino-6′-fluoro-N-((1S,2S)-2-((4′-((S)-1-(4-methylpiperazin-1-yl)ethyl)-[1,1′-biphenyl]-4-yl)methoxy)cyclopentyl)-[3,3′-bipyridine]-5-carboxamide], for which the GI50 was under 100 nM.

For `C[C@@H](c1ccc(-c2ccc(CO[C@H]3CCC[C@@H]3NC(=O)c3cc(-c4ccc(F)nc4)cnc3N)cc2)cc1)N1CCN(CCO)CC1` [Example 226, 6-amino-6′-fluoro-N-((1S,2S)-2-((4′-((S)-1-(4-(2-hydroxyethyl)piperazin-1-yl)ethyl)-[1,1′-biphenyl]-4-yl)methoxy)cyclopentyl)-[3,3′-bipyridine]-5-carboxamide], the GI50 is under 100 nM.

Turning to `C[C@H](c1ccc(-c2ccc(CO[C@H]3CCC[C@@H]3NC(=O)c3cc(-c4ccc(F)nc4)cnc3N)cc2)cc1)N1CCN(CCO)CC1` [Example 227, 6-amino-6′-fluoro-N-((1S,2S)-2-((4′-((R)-1-(4-(2-hydroxyethyl)-piperazin-1-yl)ethyl)-[1,1′-biphenyl]-4-yl)methoxy)cyclopentyl)-[3,3′-bipyridine]-5-carboxamide], the GI50 was under 100 nM.

Regarding `CC(c1ccc(-c2ccc(CO[C@H]3CCC[C@@H]3NC(=O)c3cc(-c4cncc(F)c4)cnc3N)cc2)cc1)N1CCN(C)CC1` (stereo partly drawn) [Example 230, 6-amino-5′-fluoro-N-((1S,2S)-2-((4′-(1-(4-methylpiperazin-1-yl)ethyl)-[1,1′-biphenyl]-4-yl)methoxy)cyclopentyl)-[3,3′-bipyridine]-5-carboxamide], the GI50 was under 100 nM.

`CC(c1ccc(-c2ccc(CO[C@H]3CCC[C@@H]3NC(=O)c3cc(-c4cncc(F)c4)cnc3N)cc2)cc1)N1CCN(CCO)CC1` (stereo partly drawn) [Example 236, 6-amino-5′-fluoro-N-((1S,2S)-2-((4′-(1-(4-(2-hydroxyethyl)-piperazin-1-yl)ethyl)-[1,1′-biphenyl]-4-yl)methoxy)cyclopentyl)-[3,3′-bipyridine]-5-carboxamide]: the GI50 was under 100 nM.

On to `CC(c1ccc(-c2ccc(CO[C@H]3CCC[C@@H]3NC(=O)c3cc(-c4ccc(F)nc4)cnc3N)cc2)cc1)N1CCN(CCO)CC1` (stereo partly drawn) [Example 237, 6-amino-6′-fluoro-N-((1S,2S)-2-((4′-(1-(4-(2-hydroxyethyl)-piperazin-1-yl)ethyl)-[1,1′-biphenyl]-4-yl)methoxy)cyclopentyl)-[3,3′-bipyridine]-5-carboxamide], for which the GI50 was under 100 nM.

For the molecule `CC(c1ccc(-c2ccc(CO[C@H]3CCC[C@@H]3NC(=O)c3cc(-c4cccnc4F)cnc3N)cc2)cc1)N1CCN(CCO)CC1` (stereo partly drawn) [Example 238, 6-amino-2′-fluoro-N-((1S,2S)-2-((4′-(1-(4-(2-hydroxyethyl)-piperazin-1-yl)ethyl)-[1,1′-biphenyl]-4-yl)methoxy)cyclopentyl)-[3,3′-bipyridine]-5-carboxamide], the GI50 is under 100 nM.

For the molecule `CN1CCC(Cc2ccc(-c3ccc(CO[C@H]4CCC[C@@H]4NC(=O)c4cc(-c5cnn(C)c5)cnc4N)cc3)cc2)CC1` [Example 239, 2-amino-5-(1-methyl-1H-pyrazol-4-yl)-N-((1S,2S)-2-((4′-((1-methylpiperidin-4-yl)methyl)-[1,1′-biphenyl]-4-yl)methoxy)cyclopentyl)nicotinamide], the GI50 is under 100 nM.

Consider `Cn1cc(-c2cnc(N)c(C(=O)N[C@H]3CCC[C@@H]3OCc3ccc(-c4ccc(CC5CCN(CCO)CC5)cc4)cc3)c2)cn1` [Example 240, 2-amino-N-((1S,2S)-2-((4′-((1-(2-hydroxyethyl)piperidin-4-yl)-methyl)-[1,1′-biphenyl]-4-yl)methoxy)cyclopentyl)-5-(1-methyl-1H-pyrazol-4-yl)-nicotinamide], for which the GI50 is under 100 nM.
